In patent US12268727B2, “Bioactive polypeptides for improvements in plant protection, growth and productivity” (priority 2017, dated 2025):
Values joined by “and” are separate entries in the source; they are usually repeats but may differ in a detail not shown here. Identical values can stand only once. Non-standard residues stand in square brackets, D forms with d. No end group written: not given here. sY = N[C@@H](Cc1ccc(OS(=O)(=O)O)cc1)C(=O)O

What was measured:
[1] = tested on: reactive oxygen species (ROS) production in soybean leaf tissue; test: ROS activity assay in soybean leaf tissue (luminol/horseradish peroxidase, RLU); assay type: cell-based; settings: for Description of ROS activity results (soybean): observed
[2] = tested on: reactive oxygen species (ROS) production in corn tissue; test: ROS activity assay in corn tissue (luminol/horseradish peroxidase, RLU)
[3] = tested on: reactive oxygen species (ROS) production in tomato leaf tissue; test: ROS activity assay in tomato leaf tissue; assay type: cell-based
Method: Tomato leaves were excised from 4-week-old plants using a cork borer to generate 4 mm disks. Each disc was cut in half using the edge of a razor blade, and then each disc half was floated on 150 μL of water in a 96-well plate to rest overnight. The next day, the water was removed from each well just prior to polypeptide treatment. The Flg polypeptides as described in Table 66 were added to water to bring them to a final concentration of 5 nM (Table 67) and 100 nM (Table 68) in solution with luminol and HRP before adding to each treatment well. To maintain activity, the polypeptides were stored in small aliquots to avoid multiple freezing and thawing. All dilutions to obtain working concentrations were done in ultrapure water. Polypeptide solutions were stored at −20° C. for short term usage or −80° C. for long term storage. RLU values and relative ROS activity (Tables 67, 68) is reported as the average of 4 measurements.

[4] = tested on: corn; test: Seed treatment of corn, field yield trials; assay type: in vivo
[5] = tested on: soybean; test: Seed treatment of soybean, field yield trials; assay type: in vivo
[6] = tested on: corn; test: Foliar application to corn in growth room, plant height (non-stress, heat and water deficit stress); settings: for growth phenotype vs control: foliar (HpaG-like 1 μM, PSKα)
[7] = tested on: corn; assay type: in vivo; settings: foliar 0.33 Fl. oz/Ac, V5-V8, first year trials, 10 locations
[8] = tested on: soybean; test: Foliar application to soybean, field yield trials; assay type: in vivo; settings: 11 locations
[9] = Table 33, RLU relative to native Bt.4Q7Flg22 = 100
[10] = Table 35, single polypeptides and combinations, Bt.4Q7Flg22 = 100
[11] = mutant versus native Bt.4Q7Flg22, *(predicted)
[12] = mutant versus native Bt.4Q7Flg22
[13] = seed treatment on base ST, polypeptide 1.0 μM (cellobiose 1 mM where combined)

Question: How did the “Avg. Activity (%) Soybean (297 R4) 100 nM polypeptide” value (from here on “Avg. Activity (%) Soybean”) [1, 9] turn out when “NRLSSGKRINTAADDAAGLAIS (listed as Burkholderia ubonensis) [SEQ ID NO: 538]” was run?
Answer: 91.1%

Question: And the “Avg. Activity (%) Corn (5828 YX) 5 nM polypeptide” value (shortened to “Avg. Activity (%) Corn”) [2, 9]?
Answer: 92.9%

Question: How did the “Avg. Activity (%) Soybean” value [1, 9] turn out when A spp.Flg22-B4 (ERLSSGYRINRASDDAAGLAIS) was run?
Answer: 133.1%

Question: What about the “Avg. Activity (%) Soybean” value [1, 10] of the same substance?
Answer: 106.37%

Question: And the “Avg. Activity (%) Corn” value [2, 9]?
Answer: 78.1%

Question: What about the “Avg. Activity (%) Corn” value [2, 10] of the same substance?
Answer: 53.64%

Question: For “EKLSSGQRINSASDDAAGLAIS (listed as Bacillus aryabhattai) [SEQ ID NO: 289]”, which “Avg. Activity (%) Soybean” value [1, 9] is on record?
Answer: 42.2%

Question: And the “Avg. Activity (%) Corn” value [2, 9]?
Answer: 27.1%

Question: For “A.spp.FlgII28: FlgII-28 from Aneurinibacillus sp. XH2 (EIHEMLQRMRELAVQAANGTYSDKDKKA; listed as Aneurinibacillus sp.)”, which ROS response ([3]; 5 nM) is on record?
Answer: equally low ROS response

Question: Which “Avg. Activity (%) Corn” value ([2]; Table 33, RLU relative to native Bt.4Q7Flg22 = 100, listed as Lm.Flg22-L6) does the source give for “EKLSSGFRINRAGDDAAGLAIS (Lysinibacillus macroides) [SEQ ID NO: 584]” here?
Answer: 58.7% and 33.7%

Question: What does the source list for DRLSSGQRINSASDDAAGLAIA [SEQ ID NO: 579]?
Answer: Description of ROS activity results (soybean), predicted [1, 11]: K7Q mutation: Strong reduction in ROS; Description of ROS activity results (corn), predicted [2, 11]: K7Q mutation: Strong reduction in ROS

Question: How did the “Description of ROS activity results (soybean)” value [1, 12] turn out when “QRLSSGKRINSASDDAAGLAIA (listed as Bacillus thuringiensis) [Bt.4Q7Flg22-Syn03]” was run?
Answer: D1Q mutation: Strong ROS activation in

Question: What about the “ROS activity compared to native Bt.4Q7Flg22” value ([2]; 0.25-100 nM, tissue not given) of the same substance?
Answer: increased ROS activities

Question: What about the “ROS-inducing activity among tested polypeptides” value ([2]; corn (5 nM) and soybean (100 nM)) of the same substance?
Answer: strongest ROS-inducing activity

Question: What does the source list for “GKLSSGLRINGASDDAAGLAIS (listed as Paenibacillus sp.) [Pa.Flg22]”?
Answer: yield gain vs base seed treatment only ([4]; 1 uM in slurry, 3 hybrids, 8 locations): 3.57 Bu/Ac; Average Yield Bu/Ac ([4]; seed treatment on base ST, BECK's 5828YX, 1 location, four replicated trials, polypeptide 1.0 μM (cellobiose 1 mM where combined)): 39.04 Bu/Ac; Average Change in Bu/Ac compared to Untreated Control ([4]; seed treatment on base ST, BECK's 5828YX, polypeptide 1.0 μM (cellobiose 1 mM where combined)): +11.04 Bu/Ac; Avg. Activity (%) Soybean (297 R4) 100 nM polypeptide [1, 9]: 88.6%; Average Yield Bu/Ac ([5]; seed treatment on base ST, 1 variety, 1 location, four replicate plots, polypeptide 1.0 μM (cellobiose 1 mM where combined)): 41.39 Bu/Ac; Average Change in Bu/Ac compared to Untreated Control [5, 13]: +0.28 Bu/Ac; Avg. Activity (%) Corn (5828 YX) 5 nM polypeptide [2, 9]: 116.0%

Question: “Bt 4Q7Flg 22 (DRLSSGKRINSASDDAAGLAIA; listed as Bacillus thuringiensis)” was tested. Which “Δ Height (cm)” value ([6]; corn Beck's 5828 YH, 1 μM foliar, 3 to 5 weeks) did it give?
Answer: 5.40 cm

Question: And the “Δ Height Normalized as a percentage of control height” value ([6]; corn Beck's 5828 YH, 1 μM foliar, vs water control)?
Answer: +3.7%

Question: For P spp.Flg22-B6 (GKLSSGLRINGASDDAAGLAIS), which “Avg. Activity (%) Soybean” value [1, 9] is on record?
Answer: 112.5%

Question: And the “Avg. Activity (%) Soybean” value [1, 10]?
Answer: 132.95%

Question: What about the “Avg. Activity (%) Corn” value [2, 9] of the same substance?
Answer: 135.3%

Question: What about the “Avg. Activity (%) Corn” value [2, 10] of the same substance?
Answer: 103.61%

Question: With “RI Bt.4Q7Flg22: retro-inverso form of Bt.4Q7Flg22 ([dA][dI][dA][dL]G[dA][dA][dD][dD][dS][dA][dS][dN][dI][dR][dK]G[dS][dS][dL][dR][dD]; listed as Bacillus thuringiensis)” as the substance, how does the yield advantage ([4]; second study, 12 locations) read?
Answer: 0.5 Bu/Ac

Question: And the “average yield increase vs non-treated control” value [7]?
Answer: 11.90 Bu/Ac

Question: What about the win rate [7] of the same substance?
Answer: 70%

Question: And the win rate ([5]; third study, 12 locations)?
Answer: 55%

Question: What about the yield benefit ([5]; third study, 12 locations) of the same substance?
Answer: 0.3 Bu/Ac

Question: And the win rate ([8]; R2 foliar 0.33 Fl. oz/Ac)?
Answer: 64%

Question: What about the “average yield change vs non-treated control” value ([8]; R2 foliar, Flg22 polypeptides 0.33 Fl. oz/Ac, RHPP 4 Fl. oz/Ac) of the same substance?
Answer: 0.90 Bu/Ac

Question: What does the source list for “LRISTGYRINSAADDPAGLAIS (listed as Lysinibacillus fusiformis) [SEQ ID NO: 583]”?
Answer: Avg. Activity (%) Soybean (297 R4) 100 nM polypeptide [1, 9]: 111.6%; Avg. Activity (%) Corn (5828 YX) 5 nM polypeptide [2, 9]: 59.3%

Question: Which results are given for “LRLSSGYRINSAADDAAGLAIS (listed as Lysinibacillus sp.) [SEQ ID NO: 291]”?
Answer: Avg. Activity (%) Soybean (297 R4) 100 nM polypeptide [1, 9]: 64.1%; Avg. Activity (%) Corn (5828 YX) 5 nM polypeptide [2, 9]: 26.6%

Question: NRLSSGKRINSAADDAAGLAIA [SEQ ID NO: 295] was tested. Which “Avg. Activity (%) Soybean” value [1, 9] did it give?
Answer: 83.0%

Question: And the “Avg. Activity (%) Soybean” value [1, 10]?
Answer: 97.59%

Question: And the “Avg. Activity (%) Corn” value [2, 9]?
Answer: 134.7%

Question: And the “Avg. Activity (%) Corn” value [2, 10]?
Answer: 142.53%

Question: Which results are given for “NQGISEKQLDQLLTQLIMALLQQ (Xanthomonas species) [HpaG-like]”?
Answer: growth phenotype vs control ([6]; heat and water deficit stress): not stressed environments; growth phenotype vs control ([6]; non-stressed environment): improved growth phenotype in normal environments

Question: How did the “Avg. Activity (%) Soybean” value [1, 9] turn out when “NRLSSGKQINSASDDAAGLAIA (listed as Bacillus manliponensis) [SEQ ID NO: 290]” was run?
Answer: 74.6%

Question: And the “Avg. Activity (%) Corn” value [2, 9]?
Answer: 106.0%

Question: “ESTNILQRMRELAVQSRNDSNSATDREA (listed as Pseudomonas syringae) [Ps.tomato FlgII-28, FlgII-28 from Pseudomonas syringae pv. tomato DC3000]” was tested. Which “RLU relative to Bt.4Q7Flg22 at the same concentration” value ([3]; 5 nM) did it give?
Answer: ~31 ×

Question: And the ROS response ([3]; 5 nM)?
Answer: strong ROS response

Question: What about the ROS response ([3]; 100 nM) of the same substance?
Answer: strong ROS response

Question: Which “Average Change in Bu/Ac compared to Untreated Control” value [5, 13] does the source give for Syn03Flg22 (QRLSSGKRINSASDDAAGLAIA) here?
Answer: +2.50 Bu/Ac

Question: Which “Avg. Activity (%) Soybean” value [1, 9] does the source give for L spp.Flg22-L2 (EKLSSGLRINRAGDDAAGLAIS) here?
Answer: 128.6%

Question: What about the “Avg. Activity (%) Soybean” value [1, 10] of the same substance?
Answer: 138.86%

Question: What about the “Avg. Activity (%) Corn” value [2, 9] of the same substance?
Answer: 104.5%

Question: What about the “Avg. Activity (%) Corn” value [2, 10] of the same substance?
Answer: 113.04%

Question: “At. PSKα ([sY]I[sY]TQ; listed as Arabidopsis thaliana)” was tested. Which “Plant Height (cm) Percentage Change Compared to Control (0.01% surfactant) Stress” value ([6]; separate replicated trials, stress environment, HpaG-like 1 μM, At. PSKα 100 nM foliar) did it give?
Answer: +6.1%

Question: Which results are given for Bp.Flg22 (TRLSSGKRINSAADDAAGLAIS)?
Answer: Avg. Activity (%) Soybean (297 R4) 100 nM polypeptide [1, 9]: 67.2%; Avg. Activity (%) Corn (5828 YX) 5 nM polypeptide [2, 9]: 111.2%

Question: “EKLSSGYKINRASDDAAGLAIS (Lysinibacillus spp.) [SEQ ID NO: 581]” was tested. Which “Avg. Activity (%) Soybean” value [1, 9] did it give?
Answer: 96.9%

Question: And the “Avg. Activity (%) Corn” value [2, 9]?
Answer: 36.4%

Question: For DRLSSGKRINSASDDPAGLAIA [Syn05Flg22], which “% Activity (compared to Syn0Flg22; SEQ ID NO: 578)” value ([1]; soybean leaf discs, Table 73 data set) is on record?
Answer: 100.0%

Question: What about the “Polypeptide Concentration (nM) for 5 × 10^4 total RLU production” value ([1]; soybean leaf discs, from best-fit regression, Table 73 data set) of the same substance?
Answer: 89.8 nM

Question: What about the “% Activity (compared to unmodified Syn05Flg22 (SEQ ID NO: 578))” value ([2]; corn leaf slices) of the same substance?
Answer: 100.0%

Question: What about the “Polypeptide Concentration (nM) for 5 × 10^4 total RLU production” value ([2]; corn leaf slices, from best-fit regression) of the same substance?
Answer: 19.5 nM

Question: Which “Avg. Activity (%) Soybean” value [1, 9] does the source give for DRLSSGKRINNASDDAAGLAIA [SEQ ID NO: 294] here?
Answer: 90.0%

Question: For “DRLSSGKRINSASDDAAGLQIA (listed as Bacillus thuringiensis) [SEQ ID NO: 572]”, which “Description of ROS activity results (soybean)” value [1, 12] is on record?
Answer: A20Q mutation: Negative ROS activation

Question: What about the “Description of ROS activity results (corn)” value ([2]; mutant versus native Bt.4Q7Flg22, observed) of the same substance?
Answer: A20Q mutation: Negative ROS activation

Question: With “LRISSGYRINSAADDPAGLAIS (Lysinibacillus spp.) [SEQ ID NO: 582]” as the substance, how does the “Avg. Activity (%) Soybean” value [1, 9] read?
Answer: 117.9%

Question: What about the “Avg. Activity (%) Corn” value [2, 9] of the same substance?
Answer: 60.1%
